In PMC8956739, “A synthetic lipopeptide targeting top-priority multidrug-resistant Gram-negative pathogens” (Nature Communications, 2022):
Values joined by “and” are separate entries in the source; they are usually repeats but may differ in a detail not shown here. Equal entries are not always repeated. Where two headings read alike, the source gives them in different places.

What was measured:
[1] = test system: K. pneumoniae FADDI-KP032; format: cell-based, Klebsiella pneumoniae; details: carbapenem-resistant isolate
In short: (§1)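 MICs were determined by broth microdilution in cation-adjusted Mueller–Hinton broth (CaMHB), with clinical isolates tested alongside ATCC strains.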

[2] = test system: K. pneumoniae FADDI-KP065; format: cell-based, Klebsiella pneumoniae; details: carbapenem-resistant isolate
In short: as §1

[3] = test system: KCNJ16 knockout HK-2 cells; test: Cell viability after 24 h treatment; format: cell-based, human; details: KCNJ16 knockout HK-2 cells, 24 h, Fig. 6b
Experimental: Fig. 6 Transcriptomic changes in human kidney proximal tubular HK-2 cells following treatments with polymyxin B (PMB), colistin (COL), F287, F319, and F365. a Numbers of differentially expressed genes. Distinctive intersections are color-coded. b Cell viability difference (two-tailed Student’s t-test, n = 4 biologically independent cells, Benjamini–Hochberg adjusted P-values) between wild-type HK-2 and KCNJ16 knockout (KO) cells following 24 h treatment with lipopeptides. n.s., not significant; ^*adjusted P < 0.05, ^**adjusted P < 0.01, ^***adjusted P < 0.001. Data are shown as mean ± s.d. and individual data points. c Extracted transcriptional regulatory network from Signor database with 1-step neighbor constraints (enlarged for detail). Source data are provided as a Source Data file.

Swiss mice = test: Acute toxicity in mice (maximum tolerated dose, IV bolus); format: in vivo, mouse; details: replicates 1-4
Experimental: Lipopeptide solutions were prepared in 0.9% saline and stored at 4 °C before use. Swiss mice (female, 7-week-old, 22–28 g) were used in the study. A mouse was administered an intravenous bolus of the lipopeptide (mg/kg free base) through a lateral tail vein (≤0.1 mL). After the injection, the mouse was released back into the cage and monitored for clinical signs of toxicity from 0 to 24 h after injection as follows: every 10 min in the first 2 h, every half hour from 2 to 4 h, every hour from 4 to 12 h, and every 2 h from 12 to 24 h.

A. baumannii AB5075 = format: cell-based, Acinetobacter baumannii
In short: as §1

[4] = test system: MDR clinical isolates of A. baumannii (n = 210, 200 carbapenem-resistant); format: cell-based, Acinetobacter baumannii
In short: (§2)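 Broth microdilution, CaMHB; MIC read as the antibacterial endpoint against ATCC reference strains and clinical isolates.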

A. baumannii ATCC 19606 = format: cell-based, Acinetobacter baumannii
In short: as §1

A. baumannii FADDI-AB034 = format: cell-based, Acinetobacter baumannii; details: carbapenem-resistant isolate
In short: as §1

A. baumannii FADDI-AB030 = format: cell-based, Acinetobacter baumannii; details: carbapenem-resistant isolate
In short: as §1

[5] = test system: MDR clinical isolates of P. aeruginosa (n = 213, 55 carbapenem-resistant); format: cell-based, Pseudomonas aeruginosa
In short: as §2

P. aeruginosa ATCC 27853 = format: cell-based, Pseudomonas aeruginosa
In short: as §1

[6] = test system: P. aeruginosa FADDI-PA038; format: cell-based, Pseudomonas aeruginosa; details: carbapenem-resistant isolate
In short: as §1

[7] = test system: P. aeruginosa FADDI-PA025; format: cell-based, Pseudomonas aeruginosa; details: MDR clinical isolate
In short: as §1

Swiss mice, kidney = test: Nephrotoxicity in mice (kidney histopathology); format: in vivo, mouse
In short: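 Female Swiss mice (7-week-old, 22–28 g) received lipopeptides in saline either s.c. at 12 mg/kg ×6 every 2 h (total 72 mg/kg, n = 3) or i.p. at 20 or 25 mg/kg ×6 every 2 h (total 120 mg/kg, n = 6; 150 mg/kg, n = 3). Right kidney collected 20 h after last dose, fixed in 10% buffered formalin (pH 7.4), histology scored blinded.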

[8] = mouse, in vivo, ip, 60 mg/kg/day

Polymyxin B [reference compound]
MIC K. pneumoniae FADDI-KP032 [1]: 0.5 µg/mL | MIC K. pneumoniae FADDI-KP065 [2]: 0.25 µg/mL | Cell viability, KCNJ16 KO, Rep1 ([3]; replicate 1): 61.7446 | Cell viability, KCNJ16 KO, Rep2 ([3]; replicate 2): 73.0677 | Cell viability, KCNJ16 KO, Rep3 ([3]; replicate 3): 75.1154 | Cell viability, KCNJ16 KO, Rep4 ([3]; replicate 4): 76.9625 | MTD, single replicate (Swiss mice): 7 mg/kg and 5 mg/kg and 4.6 mg/kg | MIC A. baumannii AB5075 (A. baumannii AB5075): 0.5 µg/mL | MIC50 ([4]; A. baumannii n = 210): 1 µg/mL | MIC90 ([4]; A. baumannii n = 210): 4 µg/mL | Number of isolates ([4]; isolates with MIC 0.05 µg/mL): 0 | Number of isolates ([4]; isolates with MIC 0.125 µg/mL): 0 | Number of isolates ([4]; isolates with MIC 0.25 µg/mL): 0 | Number of isolates ([4]; isolates with MIC 0.5 µg/mL): 24 | Number of isolates ([4]; isolates with MIC 1 µg/mL): 120 | Number of isolates ([4]; isolates with MIC 2 µg/mL): 47 | Number of isolates ([4]; isolates with MIC 4 µg/mL): 11 | Number of isolates ([4]; isolates with MIC 8 µg/mL): 5 | Number of isolates ([4]; isolates with MIC 16 µg/mL): 2 | Number of isolates ([4]; isolates with MIC 32 µg/mL): 0 | Number of isolates ([4]; isolates with MIC 64 µg/mL): 0 | Number of isolates ([4]; isolates with MIC >64 µg/mL): 0 | MIC A. baumannii ATCC 19606 (A. baumannii ATCC 19606): 1 µg/mL | MIC A. baumannii FADDI-AB034 (A. baumannii FADDI-AB034): 0.5 µg/mL | MIC A. baumannii FADDI-AB030 (A. baumannii FADDI-AB030): 0.25 µg/mL | MIC50 ([5]; P. aeruginosa n = 213): 1 µg/mL | MIC90 ([5]; P. aeruginosa n = 213): 2 µg/mL | Number of isolates ([5]; isolates with MIC 0.05 μg/mL (so in the source)): 0 | Number of isolates ([5]; isolates with MIC 0.125 μg/mL (so in the source)): 0 | Number of isolates ([5]; isolates with MIC 0.25 μg/mL (so in the source)): 1 | Number of isolates ([5]; isolates with MIC 0.5 μg/mL (so in the source)): 9 | Number of isolates ([5]; isolates with MIC 1 μg/mL (so in the source)): 99 | Number of isolates ([5]; isolates with MIC 2 μg/mL (so in the source)): 95 | Number of isolates ([5]; isolates with MIC 4 μg/mL (so in the source)): 7 | Number of isolates ([5]; isolates with MIC 8 μg/mL (so in the source)): 0 | Number of isolates ([5]; isolates with MIC 16 μg/mL (so in the source)): 2 | Number of isolates ([5]; isolates with MIC 32 μg/mL (so in the source)): 0 | Number of isolates ([5]; isolates with MIC 64 μg/mL (so in the source)): 0 | Number of isolates ([5]; isolates with MIC >64 μg/mL (so in the source)): 0 | MIC P. aeruginosa ATCC 27853 (P. aeruginosa ATCC 27853): 0.5 µg/mL | loss of antibacterial activity due to binding to lung surfactant (P. aeruginosa ATCC 27853; 10% Survanta): 87.5% | increase of MIC in the presence of lung surfactant (P. aeruginosa ATCC 27853; 10% Survanta vs none): 8 fold | MIC, 10% Survanta (P. aeruginosa ATCC 27853; P. aeruginosa ATCC 27853, 10% Survanta): 8 µg/mL | MIC, No Survanta (P. aeruginosa ATCC 27853; P. aeruginosa ATCC 27853, no surfactant): 1 µg/mL | MIC P. aeruginosa FADDI-PA038 [6]: 0.5 µg/mL | MIC P. aeruginosa FADDI-PA038 ([6]; listed as PMB): 1 µg/mL | MIC P. aeruginosa FADDI-PA025 [7]: 2 µg/mL | Kidney histopathology (SQS Score) (Swiss mice, kidney; 72 mg/kg/d subcutaneously in six divided doses every 2 h, n = 3): +5 (SQS + 5 = severe damage (overall score, >60)) | Kidney histopathology, mice with the SQS score (Swiss mice, kidney; mouse, in vivo): 3/3 | Kidney histological damage (Swiss mice, kidney; [8]): Moderate to severe | Kidney histological damage, mice with the given grade (Swiss mice, kidney; [8]): 6/6
